Test results taken from patent publication US20100063089A1, “SUCCINATE SALT OF 2-((4-(1-METHYL-4-PYRIDIN-4-YL)-1H-PYRAZOL-3-YL)PHENOXY)METHYL)QUINOLINE” (PFIZER INC, priority 2006, published 2010).

Experiments:
[1] = isothermal moisture sorption test; assay type: physicochemical; conditions: at 90±2% relative humidity; isothermal 25.1±0.1° C.; conducted from approximately 1% to 90% (±2%) humidity
Protocol: In another embodiment, the succinate salt increases in weight by less than 0.5% at 90±2% relative humidity in an isothermal (25.1±0.1° C.) moisture sorption test conducted from approximately 1% to 90% (±2%) humidity.

[2] = solid-state properties for formulation (deliquescence, hygroscopicity); assay type: physicochemical; conditions: solid salt

increase in weight in moisture sorption test [1]: less than 0.5% | deliquescence [2]: not deliquescent | hygroscopicity [2]: non-hygroscopic
Compound: Cn1cc(-c2ccncc2)c(-c2ccc(OCc3ccc4ccccc4n3)cc2)n1.O=C(O)CCC(=O)O [succinate salt, succinate salt of 2-((4-(1-methyl-4-(pyridin-4-yl)-1H-pyrazol-3-yl)phenoxy)methyl)quinoline]
